Consider one molecule from patent US10821104B2, “Five-membered heterocyclic amides WNT pathway inhibitor” (SUZHOU SINOVENT PHARMACEUTICALS CO., LTD., priority 2015, dated 2020).

Usually half-life stands for the time in which the quantity being followed falls by half. The bioavailability is dose-corrected exposure relative to a reference, in per cent. Low values mean little systemic uptake, high ones much systemic uptake.

Series [1] can be described thus: Metabolic stability in human liver microsomes. Format: in vitro ADME. From the text:
(§1) Metabolic stability and pharmacokinetic characteristics of REX-P-7 were detected in human and mouse liver microsomes and in Balb/c mice, respectively.
(In general: Microsomes from liver hold many membrane-bound enzymes, among them those of drug oxidation.)

Series [2] in a line: Metabolic stability in mouse liver microsomes. Format: in vitro ADME.
From the text: as §1

A short description of series [3]: In vivo PK in Balb/c mice. The method, then: as §1
Method of PK experiment: 18 male Balb/c mice were divided into 2 groups, 9 animals in each group. Group 1 was administered intravenously with REX-P-7 at a dose of 5 mg/kg. Group 2 was administered orally with REX-P-7 at a dose of 10 mg/kg. Blood samples (100 μL) for PK analysis were collected into EDTA microtainers (K2 EDTA, the final concentration in blood sample is 0.25 mg/mL) from retro orbital plexus at pre-dose, 0.083, 0.25, 0.5, 1, 2, 4, 8, 24 hours post-dosing for PO and IV groups. Immediately after collection, blood collection tubes were gently inverted at least 5 times, ensuring complete mixing, then immediately placed on ice. The blood was centrifuged at 8000 rpm for 5 min at 4° C. to separate the plasma from the blood cells. After separation, 35 μL plasma was transferred into clean tube labeled by the compound name, animal number and timepoint. Plasma was stored at −80° C. until analysis.

Series [4] has as its system regeneration of zebrafish tailfin resected. Briefly: Effect of compounds on tailfin regeneration of zebrafish (resected caudal fin). The settings on record: Danio rerio; 3 d.p.f. zebrafish with resected caudal fins treated until 7 d.p.f.; read-out: IC50, inhibition of regeneration of zebrafish tailfin resected. Format: in vivo. The protocol:
Method: Three days post fertilization (d.p.f) zebrafish with resected caudal fins were placed in water containing 1% DMSO carrier or compounds (10 μM˜0.001 μM) until 7 d.p.f. The zebrafish were placed in a 6-well microplate at a density of 15 zebrafish per well with 3 mL of fish water. Zebrafish were incubated at 28.5° C. in the dark until 7 d.p.f., then anesthetized, and imaged under a dissecting stereomicroscope installed with a high-speed video camera (JVC, Japan). Quantitative length of regeneration of tailfin was performed and pixels data were expressed as mean±SEM. The effect of compound on regeneration of tailfin of zebrafish was calculated based on the following formula: Drug inhibition on regeneration of tailfin (%)=[1−Pixel(compound)/Pixel(vehicle)]×100%.
(§2) Inhibition curves were generated using GraphPad Prism 6.0 (GraphPad Software Inc., San Diego Calif.) and IC50 was determined with logistic regression.

Series [5] has as its system zebrafish axis formation. As to the kind of experiment: Effect of compounds on axis formation of zebrafish (zebrafish phenotype screening). Format: in vivo, Zebrafish Danio rerio. The settings on record: Danio rerio; embryos treated from 3 h to 48 h post fertilization; concentration at which 50% of axis formation is inhibited; read-out: IC50, inhibition of axis formation of zebrafish. The method, then: Method: Zebrafish embryos were collected after natural spawning. Embryos were treated from the 16 cell stage (3 hours post fertilization) with different concentration series 100 μM˜0.001 μM of the compound in 1% DMSO/fish water or with DMSO equivalent. The zebrafish were placed in a 6-well microplate at a density of 20 zebrafish per well with 3 mL of fish water. Zebrafish were incubated at 28.5° C. in the dark until 48 h post fertilization, then anesthetized, and imaged under a dissecting stereomicroscope installed with a high-speed video camera (JVC, Japan). Quantitative length of axis was performed with NIS-Elements D 3.1 soft and pixels data were expressed as mean±SEM. The effect of compound on axis formation of zebrafish was calculated based on the following formula: Inhibition on axis growth (%)=[1−Pixel(compound)/Pixel(vehicle)]×100%
as §2

Series [6] has as its system Wnt/β-catenin reporter (Super 8×TOPFLASH) in HEK293 cells cocultured with L-Wnt3a-expressing cells. Briefly: 293T/TOPLUC-Wnt3a luciferase reporter gene assay. Format: cell-based. The settings on record: Homo sapiens, HEK293, 24 h incubation, read-out: IC50, inhibition of Wnt/β-catenin reporter gene readout. The method, then:
In this assay, HEK293 cells harboring a luciferase-based Wnt/β-catenin reporter (Super 8×TOPFLASH) were cocultured with L-Wnt3a-expressing cells. 293T/TOPLUC-Wnt3a were incubated with small molecules for 24 h. The level of the Luciferase reporter gene was used as an indicator for Wnt ligand-driven, LEF/TCF-dependent transcriptional activities. IC50 is defined as the compound concentration at which 50% of luciferase reporter activity is inhibited.
Results: REX-P compounds were investigated on CrownBio Cell plateform to assay the activity of inhibiting Wnt/β-catenin reporter activity, results are shown in Table 3.
(In general: A reporter such as luciferase makes a cellular process visible.)

The mark [7] stands for this setting: Balb/c mice, summary of Table 4.
Where [8] appears, read: IV dose 5 mg/kg, male Balb/c mice, plasma.
Where [9] appears, read: PO dose 10 mg/kg, male Balb/c mice, plasma.

Structures are written as SMILES. pIC50: −log10 of the molar value.

For `Cc1cc(-c2ncc(CNC(=O)c3cc(-c4ccccc4)on3)cc2C)ccn1` [REX-P-7, N-((2′,3-dimethyl-[2,4′-bipyridin]-5-yl)methyl)-5-phenylisoxazole-3-carboxamide], the “Eh % (HLM)” value in series [1] turned out to be 56.7%. Besides, the “Eh % (MLM)” value in series [2] worked out at 65%. In addition, in series [3] (setting [7]), the “bioavailability (in words)” value is given as “good bioavailability”. The “half-life (in words)” value in series [3] (setting [7]) is on record as “good half-life”. In addition, in series [3] (IV dose 5 mg/kg, male Balb/c mice), the “CL (/F)” value stood at 2.83 mL/min/kg. Besides, the values for the AUC0-t/Dose in series [3] (setting [8]) and in series [3] (setting [9]) were 5770 ng·h/mL and 2922 ng·h/mL, respectively. The Cmax/Dose in series [3] (setting [8]) came to 4167 ng/mL; in series [3] (setting [9]), 1923 ng/mL. Further, the half-life in series [3] (mouse, plasma, IV dose 5 mg/kg, male Balb/c mice) was 1.68 h; in series [3] (mouse, plasma, PO dose 10 mg/kg, male Balb/c mice) it was 1.62 h. This molecule also registered a bioavailability in series [3] (mouse, plasma, PO 10 mg/kg vs IV 5 mg/kg, male Balb/c mice) of 50.6%. Moreover, the pIC50 was 7.33 in series [4], 7.62 in series [5] and 9.16 in series [6].
